pIC50: −log10 of the molar value.

Common to all, as to format: cell-based
For assay [1], the system named is Thrombin-stimulated Ca2+ response in HT-29 cells. The assay can be described thus: Ca FLIPR TETRA assay, ANTAGONIST mode, activator 1 U/mL Thrombin. The following applies: HT-29 cells, activator 1 U/mL Thrombin. An outline of the steps:
(§1)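 HT-29 cells in 1% FBS/McCoy's overnight, loaded with FLIPR Calcium 5 dye (45 min 37 °C, 15 min r.t.); compounds added and read for intrinsic Ca2+ activation, then after 30 min r.t. stimulated with fixed activator: 8 μM SLIGKV, 0.6 μM UTP, 1 U/mL thrombin or 3.1 U/mL trypsin (final).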

The target in assay [2] is T1, PAR2 (HT-29 cells) (Homo sapiens, UniProt P55085).
T1 construct: host or cells: HT-29
T1 sequence (P55085 26-397): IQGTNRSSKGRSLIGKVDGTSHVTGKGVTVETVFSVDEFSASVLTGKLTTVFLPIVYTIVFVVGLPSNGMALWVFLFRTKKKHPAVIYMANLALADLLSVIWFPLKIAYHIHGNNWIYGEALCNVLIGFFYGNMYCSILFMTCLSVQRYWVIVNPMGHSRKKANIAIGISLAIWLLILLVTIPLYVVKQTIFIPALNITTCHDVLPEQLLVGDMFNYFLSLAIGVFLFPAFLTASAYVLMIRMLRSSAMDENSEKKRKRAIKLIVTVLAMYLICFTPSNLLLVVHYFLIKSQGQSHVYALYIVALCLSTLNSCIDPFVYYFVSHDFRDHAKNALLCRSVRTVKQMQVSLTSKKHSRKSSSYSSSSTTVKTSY
Put plainly: Ca FLIPR TETRA assay, ANTAGONIST mode, activator 3.1 U/mL trypsin. To be noted: HT-29 cells; activator 3.1 U/mL trypsin; Method A: maximal concentration of antagonist 0.1, 1 or 2 μM. In short, it runs like this: as §1

Assay [3] concerns UTP-stimulated Ca2+ response in HT-29 cells. Put plainly: Ca FLIPR TETRA assay, ANTAGONIST mode, activator 0.6 μM UTP. The following applies: HT-29 cells, activator 0.6 μM UTP. An outline of the steps: as §1
Assay [4] concerns the target T1, PAR2 (HT-29 cells). The assay can be described thus: Ca FLIPR TETRA assay, ANTAGONIST mode, activator 8 μM SLIGKV. The following applies: HT-29 cells; activator 8 μM SLIGKV; Method A: maximal concentration of antagonist 0.1, 1 or 2 μM. An outline of the steps:
as §1

In the case of `CC(C)(C)c1cc(-c2ccc(Cl)c(F)c2)nc2cc(C(=O)N3CCN(c4cc(C(=O)O)ncn4)CC3(C)C)oc12` [Example I-490], the pIC50 (as a rule, the IC50 on a negative log10 scale, so that one unit is a factor of ten) was below 5.70 in assay [1] (Homo sapiens), 8.41 in assay [2], below 5.70 in assay [3] (Homo sapiens) and 8.51 in assay [4].
Take `CC(C)(C)c1cc(-c2ccc(Cl)c(F)c2)nc2cc(C(=O)N3CCN(c4ccncc4C(=O)O)CC3(C)C)oc12` [Example I-491]: the negative logarithm of the IC50 (pIC50) is below 5.70 in assay [1] (Homo sapiens), 6.64 in assay [2], below 5.70 in assay [3] (Homo sapiens) and 6.72 in assay [4].
With `Cc1cnc(N2CCN(C(=O)c3cc4nc(-c5ccc(Cl)c(F)c5)cc(C(C)(C)C)c4o3)C(C)(C)C2)c(C(=O)O)c1` [Example I-492], the pIC50 was below 5.70 in assay [1] (Homo sapiens), 8.14 in assay [2], below 5.70 in assay [3] (Homo sapiens) and 8.12 in assay [4].
Take `CC(C)(C)c1cc(-c2ccc(Cl)cc2)nc2cc(C(=O)N3CCN(C(=O)CC4(C(=O)O)CCCC4)CC3(C)C)oc12` [Example I-493]: the pIC50 was below 5.70 in assay [1] (Homo sapiens), 9.40 in assay [2], below 5.70 in assay [3] (Homo sapiens) and 9.40 in assay [4].
For `Cc1cc(C(=O)O)nc(N2CCN(C(=O)c3cc4nc(-c5ccc(Cl)c(F)c5)cc(C(C)(C)C)c4o3)C(C)(C)C2)c1` [Example I-494], the pIC50 in assay [1] (Homo sapiens) is below 5.70; in assay [2], 10.00; in assay [3] (Homo sapiens), below 5.70; in assay [4] it was below 5.70.
On to `Cc1ccc(N2CCN(C(=O)c3cc4nc(-c5ccc(Cl)cc5)cc(C(C)(C)C)c4o3)C(C)(C)C2=O)nc1C(=O)O` [Example I-495], for which the pIC50 in assay [1] (Homo sapiens) was below 5.70; in assay [2], 7.82; in assay [3] (Homo sapiens), below 5.70; in assay [4], 7.89.
For the molecule `Cc1nc(N2CCN(C(=O)c3cc4nc(C5CCC(C)(C)CC5)cc(C(C)(C)C)c4o3)C(C)(C)C2)ccc1C(=O)O` [Example I-496], the pIC50 in assay [1] (Homo sapiens) was below 5.70; in assay [2], 9.22; in assay [3] (Homo sapiens) it was below 5.70; in assay [4] it was 9.40.
With `CC(C)(C)c1cc(-c2ccc(Cl)c(F)c2)nc2cc(C(=O)N3CCN(C(=O)CC4(C(=O)O)CCOCC4)CC3(C)C)oc12` [Example I-497], the negative-log IC50 (pIC50) in assay [1] (Homo sapiens) was below 5.70; in assay [2] it was 8.66; in assay [3] (Homo sapiens), below 5.70; in assay [4], 8.66.
Turning to `COc1nc(N2CCN(C(=O)c3cc4nc(-c5ccc(Cl)c(F)c5)cc(C(C)(C)C)c4o3)C(C)(C)C2)ccc1C(=O)O` [Example I-498], the pIC50 in assay [1] (Homo sapiens) was below 5.70; in assay [2] it was 9.52; in assay [3] (Homo sapiens), below 5.70; in assay [4] it was 9.52.
Regarding `CC(C)(C)c1cc(-c2ccc(Cl)cc2)nc2cc(C(=O)N3CCN(C(=O)CC4(C(=O)O)CCOCC4)CC3(C)C)oc12` [Example I-499], the pIC50 in assay [1] (Homo sapiens) is below 5.70; in assay [2] it was 8.30; in assay [3] (Homo sapiens), below 5.70; in assay [4], 8.44.
Regarding `CC(C)(C)c1cc(-c2ccc(Cl)c(F)c2)nc2cc(C(=O)N3CCN(C(=O)[C@@H]4CCCC[C@@H]4C(=O)O)CC3(C)C)oc12` [Example I-500], the pIC50 in assay [1] (Homo sapiens) is below 5.70; in assay [2] it was 9.30; in assay [3] (Homo sapiens), below 5.70; in assay [4] it was 9.40.
Turning to `CC(C)(C)c1cc(-c2ccc(Cl)c(F)c2)nc2cc(C(=O)N3CCN(c4nc(C(=O)O)ccc4F)CC3(C)C)oc12` [Example I-501], the pIC50 in assay [1] was below 5.70; in assay [2], 10.00; in assay [3], below 5.70; in assay [4] it was 10.00.
Consider `CC(C)(C)c1cc(-c2ccc(Cl)cc2)nc2cc(C(=O)N3CCN(c4nc(C(=O)O)ccc4F)CC3(C)C)oc12` [Example I-502], for which the pIC50 is below 5.70 in assay [1], 9.70 in assay [2], below 5.70 in assay [3] and 9.70 in assay [4].
Regarding `CC1(C)CCC(c2cc(C(C)(C)C)c3oc(C(=O)N4CCN(c5nc(C(=O)O)ccc5F)CC4(C)C)cc3n2)CC1` [Example I-503], the pIC50 is below 5.70 in assay [1], 9.52 in assay [2], below 5.70 in assay [3] and 9.70 in assay [4].
On to `Cc1cc(C(=O)N2CCN(C(=O)c3cc4nc(-c5ccc(Cl)c(F)c5)cc(C(C)(C)C)c4o3)C(C)(C)C2)[nH]n1` [Example I-504], for which the pIC50 in assay [1] (Homo sapiens) is below 5.70; in assay [2], 8.77; in assay [3] (Homo sapiens), below 5.70; in assay [4], 8.92.

Source of the values: patent US20180057505A1, “BICYCLIC HETEROARYL COMPOUNDS USEFUL AS INHIBITORS OF THE PAR-2 SIGNALING PATHWAY” (VERTEX PHARMACEUTICALS INCORPORATED, priority 2015, published 2018).
